Experimental data as given in patent US20170240570A1, “NOVEL SMALL MOLECULE ANTICANCER AGENTS” (UNIVERSITY OF FLORIDA RESEARCH FOUNDATION, priority 2014, published 2017).
“Also recorded” adds a separate entry of the source.

Experiments:
Format in all cases: cell-based, human
[1] = system: EGFR, HER2, HER3, Akt, Erk, PARP in MDA-MB-468 cells; experiment: Immunoblot analysis of treated cells
Procedure: FIG. 3. depicts 3A) the analysis of MDA-MB-468 cells treated as indicated for 24 h by immunoblot for levels of EGFR and EGFR phosphorylation. 3B) the analysis of MDA-MB-468 cells treated as indicated for 24 h by immunoblot for PARP cleavage. 3C) MDA-MB-468 cells were either left untreated, or treated with 20 μM NSC624205 for 24 hours. NSC624205-treated cells were then washed and incubated for the indicated periods in the absence of drug. EGFR electrophoretic mobility was analyzed by immunoblot. 3D) MDA-MB-468 cells were pretreated with 25 μM NSC624205 or vehicle for 15 hours and then either left untreated or stimulated for 15 minutes with 20 ng/ml EGF, after which cell extracts were analyzed by immunoblot. 3E) MDA-MB-468 cells were treated as indicated for 24 hours and analyzed by immunoblot.
FIG. 5. depicts 5A) Photomicrographs of MDA-MB-468 cells treated for 24 h with 20 μM of the indicated compounds. 5B) Immunoblot analysis of MDA-MB-468 cells treated as in 5A. […] 5D) Viability of BT474 or MDA-MB-468 cells treated for 24 h with the indicated drug at the specified concentrations was measured in MTT assays. Assays were carried out in triplicate and results were presented as the average±S.D. 5E) Proliferation of tert-immortalized human mammary epithelial cells (HMEC-tert) and MDA-MB-468, BT474, and SKBR3 breast cancer cells after incubation with the indicated concentrations of RBF3 for 24 h was measured in thymidine incorporation assays as described in FIG. 2D. 5F)-5H) The indicated cell lines were treated with the indicated compounds at 20 μM unless otherwise indicated for 24 h and analyzed by immunoblot.
To examine the reversibility of NSC624205 actions, MDA-MB-468 cells were treated for 24 hr with NSC624205 and then the compound was washed out and the cells were allowed to recover for various periods of time. […] To examine whether NSC624205 can suppress cellular responses to EGF, cells were stimulated with EGF either with or without NSC624205 treatment.

[2] = system: HER2, EGFR, Akt, Erk, S6, PARP in HCC1954 cells; experiment: Immunoblot analysis of treated cells
Description: Immunoblot analysis of HCC1954 cells treated as in 8B.

HCC1954 cells = experiment: Viability in MTT assay; conditions: 24 h
Procedure: FIG. 8. depicts 8A) Viability of HCC1954 cells treated as indicated for 24 h measured in MTT assays.

[3] = system: MDA-MB-468 breast cancer cells; experiment: Cell viability / cell killing, photomicrographs of treated cells
Procedure: (§1) FIG. 2. depicts 2A) Photomicrographs of MDA-MB-468 or BxPC3 cells treated for 24 hours with 25 μM NSC624205 or the vehicle control. 2B) MDA-MB-468 cells were treated for 24 hours with the indicated concentrations of NSC624203, NSC624204, and NSC624205 and cell viability (mass) was measured by crystal violet staining. 2C) Photomicrographs of MDA-MB-468, SKBR3, or MDA-MB-231 cells treated for 24 h with 10 μM NSC624205 or the vehicle control. 2D) Cell proliferation was measured by thymidine incorporation through the treatment of MDAMB-468 and SKBR3 cells for 24 hours with NSC624203, an EGFR/HER2 inhibitor, or a combination of the two compounds. Results are presented as the average of triplicate determinations±S.D. 2E) The indicated cancer cell lines were treated for 24 h with 20 μM NSC624205 or vehicle and cell extracts were analyzed by immunoblot. Actin serves as a loading control.
FIG. 5. depicts 5A) Photomicrographs of MDA-MB-468 cells treated for 24 h with 20 μM of the indicated compounds. 5B) Immunoblot analysis of MDA-MB-468 cells treated as in 5A. 5C) Chemical structures of Disulfide bond Disrupting Agents (DDAs) showing active compounds on the left side with the pharmacophore highlighted in red, along with the generic pharmacophore. […] The exception to this rule is NSC627175/DTDO, which represents a different pharmacophore. 5D) Viability of BT474 or MDA-MB-468 cells treated for 24 h with the indicated drug at the specified concentrations was measured in MTT assays. Assays were carried out in triplicate and results were presented as the average±S.D. 5E) Proliferation of tert-immortalized human mammary epithelial cells (HMEC-tert) and MDA-MB-468, BT474, and SKBR3 breast cancer cells after incubation with the indicated concentrations of RBF3 for 24 h was measured in thymidine incorporation assays as described in FIG. 2D. 5F)-5H) The indicated cell lines were treated with the indicated compounds at 20 μM unless otherwise indicated for 24 h and analyzed by immunoblot.
The sulfur atom in sulfinic acids can act as a nucleophile capable of breaking disulfide bonds. […]

[4] = system: BxPC3 pancreatic cancer cells; experiment: Cell viability, photomicrographs of treated cells; conditions: 25 μM, 24 hours
Procedure: as §1
(§2) The sulfur atom in sulfinic acids can act as a nucleophile capable of breaking disulfide bonds. Therefore we obtained several sulfinate-containing compounds from the National Cancer Institute's Developmental Therapeutics Program (NCI/DTP) and, as an initial screen, examined their ability to decrease the viability of various human cancer cell lines. […] NSC624205 and two related compounds, NSC624203 and NSC624204, decreased cell viability by 50% in the range of 3.7-33 μM (FIG. 2B). […]

[5] = system: MDA-MB-231 breast cancer cell line; experiment: Cell killing, photomicrographs of treated cells; conditions: 10 μM, 24 hr
Procedure: as §1, §2

SKBR3 cells [6] = experiment: Cell killing, photomicrographs of treated cells; conditions: 10 μM, 24 hr
Procedure: as §1, §2

[7] = system: T47D cells (vector control); experiment: Cell death, photographs of treated cells
Procedure: (§3) FIG. 4. depicts 4A) the treatment of vector control or EGFR overexpressing T47D cells with 20 μM NSC624205 or vehicle for 24 hours and then photographed. […] 4B) Cells treated as in 4A) were subjected to immunoblot analysis.

[8] = system: T47D cells with enforced EGFR expression (T47D.EGFR); experiment: Cell death, photographs of treated cells; conditions: 20 μM, 24 hours
Procedure: as §3

[9] = system: EGFR, HER2, HER3, Akt, Erk in SKBR3 cells; experiment: Immunoblot analysis of treated cells; conditions: 20 μM, 24 h
Procedure: as §1
FIG. 5. depicts 5A) Photomicrographs of MDA-MB-468 cells treated for 24 h with 20 μM of the indicated compounds. 5B) Immunoblot analysis of MDA-MB-468 cells treated as in 5A. […] 5D) Viability of BT474 or MDA-MB-468 cells treated for 24 h with the indicated drug at the specified concentrations was measured in MTT assays. […] 5F)-5H) The indicated cell lines were treated with the indicated compounds at 20 μM unless otherwise indicated for 24 h and analyzed by immunoblot. […]

Erk in T47D cells = experiment: Immunoblot analysis of treated cells; conditions: 20 μM, 24 h
Procedure: as §1, §2

[10] = system: EGFR, Akt in EGFR overexpressing T47D cells; experiment: Immunoblot analysis of treated cells; conditions: 20 μM, 24 hours
Procedure: as §3

MDA-MB-468 cells = experiment: Cell proliferation by thymidine incorporation; conditions: 24 hours, same concentration
Procedure: as §1, §2

SKBR3 cells [11] = experiment: Cell proliferation by thymidine incorporation; conditions: 24 hours, same concentration
Procedure: as §1, §2

[12] = system: T47D.Puro and T47D.EGFR cells; experiment: Thymidine incorporation, vector control versus EGFR overexpressing cells; conditions: 24 h, increasing concentrations
[13] = 25 μM pretreatment 15 hours, 20 ng/ml EGF 15 minutes
[14] = 24 h, increasing concentrations

O=S(O)CCCCSSCC(O)CO (stereo not drawn) [NSC606968]
Akt phosphorylation ([1]; 20 μM, 24 h): weak effect | EGFR electrophoretic mobility ([1]; 20 μM, 24 h): partial effect

CS(=O)(=O)CCNCc1ccc(-c2ccc3ncnc(Nc4ccc(OCc5cccc(F)c5)c(Cl)c4)c3c2)o1 [Lapatinib]
Akt phosphorylation ([2]; 24 h, 20 μM RBF3, 100 nM Rapamycin, 20 μM Lapatinib): without affecting | Erk phosphorylation ([2]; 24 h, 20 μM RBF3, 100 nM Rapamycin, 20 μM Lapatinib (FIG. 8C)): reduced | response of cell viability to single drug (HCC1954 cells): slightly more responsive

O=S(O)CCCCSSCCCCSSCCCCS(=O)O [NSC624205]
cell killing ([3]; 10 μM, 24 hr): killed | cell viability ([3]; 25 μM, 24 hours): lethal | cell viability [4]: little effect | cell killing [5]: little effect | cell killing (SKBR3 cells [6]): killed | cell killing [7]: not killed | cell death [8]: Extensive cell death; also recorded: underwent cell death | EGFR electrophoretic mobility after washout (reversibility) ([1]; 20 μM for 24 hours, then 24 hours post-treatment without drug): restored to near control levels | EGFR tyrosine phosphorylation on Tyr845, EGF-induced [1, 13]: decreased | overall EGF-induced cellular tyrosine phosphorylation [1, 13]: decreased | EGFR electrophoretic mobility [1, 14]: concentration-dependent increase | EGFR phosphorylation (phospho-specific antibody) [1, 14]: decrease | PARP cleavage [1, 14]: concentration-dependent increase | Akt phosphorylation [9]: inhibiting | Erk phosphorylation [9]: inhibiting | Erk phosphorylation ([2]; 20 μM NSC624205, 24 h (FIG. 2E)): inhibiting | Erk phosphorylation (Erk in T47D cells): inhibiting | Akt phosphorylation [10]: decreased | EGFR electrophoretic mobility [10]: electrophoretic mobility shift

O=S(O)CCCCSSCC(O)C(O)CSSCCCCS(=O)O (stereo not drawn) [NSC624203]
inhibition of proliferation compared with commercial EGFR/HER2 tyrosine kinase inhibitor (Calbiochem #324673) (MDA-MB-468 cells): more effectively suppressed | inhibition of proliferation compared with commercial EGFR/HER2 tyrosine kinase inhibitor (Calbiochem #324673) (SKBR3 cells [11]): more effectively suppressed | sensitivity of proliferation of EGFR overexpressing T47D cells relative to control cells [12]: more sensitive | decreasing Akt phosphorylation, increasing PARP cleavage, reducing EGFR and overall cellular tyrosine phosphorylation, compared with AG490 or EGFR/HER2 kinase inhibitor ([1]; 24 hours): more effective

O=S(O)CCCCSSSCCCCS(=O)O [NSC333839]
cell viability ([3]; 20 μM, 24 h, panel of sulfinate-containing compounds): activity similar to NSC624205 | EGFR and Akt phosphorylation ([1]; 20 μM, 24 h): activity similar to NSC624205
